Like-named read-outs stand apart in the source and are kept apart here. Residues, ends and D or L forms follow the SMILES beside them.
What was measured:
R. mucilaginosa = test: Biolog Phenotype Microarray PM1-2 growth on carbon sources; assay type: cell-based, Rothia mucilaginosa; settings: for growth of R. mucilaginosa on the carbon source (in words): AUC lower than 50 = not supporting growth
Description: (§1) Using Phenotype Microarray (PM) panels (Biolog), the influence of 190 carbon sources on the growth of the potential probiotic species R. mucilaginosa, R. dentocariosa, R. gilardii, G. haemolysans, and common respiratory pathogens P. aeruginosa, and S. aureus was determined. PM1 and PM2 panels (Biolog) were inoculated according to the manufacturer's instructions. Growth curves were generated for 35 hours by measuring the absorbance at 590 nm using an EnVision (Perkin Elmer) plate reader.

R. dentocariosa = test: as above; assay type: cell-based, Rothia dentocariosa; settings: for growth of R. dentocariosa on the carbon source (in words): AUC lower than 50 = not supporting growth
Description: as §1

P. aeruginosa = test: as above; assay type: cell-based, Pseudomonas aeruginosa; settings: for growth of P. aeruginosa on the carbon source (in words): AUC lower than 50 = not supporting growth
Description: as §1

S. aureus = assay type: cell-based, Staphylococcus aureus
Description: as §1

G. haemolysans = test: Biolog Phenotype Microarray PM1-2 growth on carbon sources; assay type: cell-based, Gemella haemolysans; settings: for growth of G. haemolysans on the carbon source (in words): AUC lower than 50 = not supporting growth
Description: as §1

R. gilardii = test: as above; assay type: cell-based, Roseomonas gilardii
Description: as §1

[1] = 35 hours, absorbance 590 nm, n = 1, cells without values AUC < 50

| Compound | AUC of growth curve, R. mucilaginosa (R. mucilaginosa; [1]) | AUC of growth curve, R. dentocariosa (R. dentocariosa; [1]) | growth of R. dentocariosa on the carbon source (in words) (R. dentocariosa) | AUC of growth curve, P. aeruginosa (P. aeruginosa; [1]) | growth of P. aeruginosa on the carbon source (in words) (P. aeruginosa) | AUC of growth curve, S. aureus (S. aureus) | further results |
| --- | --- | --- | --- | --- | --- | --- | --- |
| O=P(O)(O)OCC(O)CO (racemic) [D,L-α-Glycerol-Phosphate] | 247.7 | 271.8 | enable growth | 114.5 | not or only minimally supporting growth | – | growth of R. mucilaginosa on the carbon source (in words) (R. mucilaginosa): enable growth; growth of S. aureus on the carbon source (in words) (S. aureus): not or only minimally supporting growth |
| CC(O)C(C)O (stereo not drawn) [2,3-Butanediol] | – | – | – | – | – | 147.2 | AUC of growth curve, G. haemolysans (G. haemolysans; [1]): 145.4 |
| CC(=O)CC(=O)O [Acetoacetic Acid] | 301.4 | 229.8 | – | 301.3 | – | 928.3 | AUC of growth curve, R. gilardii (R. gilardii; [1]): 172.4 |
| Nc1ncnc2c1ncn2[C@@H]1O[C@H](CO)[C@@H](O)[C@H]1O [Adenosine] | – | – | – | 398.1 | – | 472.6 | AUC of growth curve, G. haemolysans (G. haemolysans; [1]): 65.6 |
| O=C[C@H](O)[C@@H](O)[C@@H](O)[C@H](O)CO [D-Galactose] | 101.1 | 533.6 | – | 720.0 | – | 834.0 | AUC of growth curve, R. gilardii (R. gilardii; [1]): 186.6 |
| O=C(CO)[C@H](O)[C@H](O)[C@H](O)CO [D-Psicose] | – | – | – | – | – | 698.5 | AUC of growth curve, R. mucilaginosa (R. mucilaginosa): 436.4; AUC of growth curve, R. dentocariosa (R. dentocariosa): 428.2; AUC of growth curve, R. gilardii (R. gilardii): 86.7; AUC of growth curve, P. aeruginosa (P. aeruginosa): 771.3 |
| OC[C@H]1O[C@H](O[C@H]2O[C@H](CO)[C@@H](O)[C@H](O)[C@H]2O)[C@H](O)[C@@H](O)[C@@H]1O [D-Trehalose] | 572.3 | 937.7 | allowed growth | – | did not support growth | 852.9 | growth of R. mucilaginosa on the carbon source (in words) (R. mucilaginosa): allowed growth |
| OCC(O)CO [Glycerol] | 786.8 | 998.9 | allowed growth | 78.3 | did not support growth | 802.4 | growth of R. mucilaginosa on the carbon source (in words) (R. mucilaginosa): allowed growth; AUC of growth curve, R. gilardii (R. gilardii; [1]): 59.0 |
| NCC(=O)N[C@@H](CCC(=O)O)C(=O)O [Glycyl-L-Glutamic Acid] (H-Gly-Glu-OH) | – | – | – | – | – | 871.5 | AUC of growth curve, R. mucilaginosa (R. mucilaginosa): 140.3; AUC of growth curve, R. gilardii (R. gilardii): 61.5; AUC of growth curve, P. aeruginosa (P. aeruginosa): 285.6 |
| O=CC(=O)O [Glyoxylic Acid] | 142.0 | 53.5 | – | – | – | – | AUC of growth curve, R. gilardii (R. gilardii; [1]): 85.2 |
| C[C@H](N)C(=O)NCC(=O)O [L-Alanyl-Glycine] (H-Ala-Gly-OH) | – | – | – | – | – | 809.1 | AUC of growth curve, R. gilardii (R. gilardii): 76.2; AUC of growth curve, G. haemolysans (G. haemolysans): 114.6; AUC of growth curve, P. aeruginosa (P. aeruginosa): 180.2 |
| C[C@H](O)C(=O)O [L-Lactic Acid] | 292.5 | 632.8 | – | 349.6 | – | 773.2 | AUC of growth curve, R. gilardii (R. gilardii; [1]): 70.3 |
| N[C@@H](Cc1ccccc1)C(=O)O [L-Phenylalanine] | – | – | – | – | – | 167.3 | AUC of growth curve, G. haemolysans (G. haemolysans; [1]): 64.4 |
| O=C(O)[C@@H]1CCCN1 [L-Proline] | 268.5 | 1049.5 | – | 425.7 | – | 567.9 | – |
| OC[C@H]1O[C@H](O[C@H]2[C@H](O)[C@@H](O)[C@H](O)O[C@@H]2CO)[C@H](O)[C@@H](O)[C@@H]1O [Maltose] | 1052.6 | 977.1 | allowed growth | – | did not support growth | 867.8 | growth of R. mucilaginosa on the carbon source (in words) (R. mucilaginosa): allowed growth |
| COC(=O)C(C)=O [Methyl Pyruvate] | – | 74.1 | – | 818.7 | – | 611.5 | AUC of growth curve, G. haemolysans (G. haemolysans; [1]): 870.9 |
| CC(=O)N[C@H]1C(O)O[C@H](CO)[C@@H](O)[C@@H]1O (stereo partly drawn) [N-Acetyl-D-Glucosamine] | – | – | – | – | did not support growth | 643.5 | AUC of growth curve, G. haemolysans (G. haemolysans; [1]): 711.9; growth of G. haemolysans on the carbon source (in words) (G. haemolysans): supported growth |
| CC(=O)N[C@H]1[C@@H](O)[C@H](O)[C@@H](CO)O[C@H]1O [N-Acetyl-β-D-Mannosamine] | – | – | – | – | did not support growth | 738.3 | AUC of growth curve, G. haemolysans (G. haemolysans; [1]): 375.8; growth of G. haemolysans on the carbon source (in words) (G. haemolysans): supported growth |
| OC[C@H]1O[C@H](OC[C@H]2OC(O)(CO)[C@@H](O)[C@@H]2O)[C@H](O)[C@@H](O)[C@@H]1O (stereo partly drawn) [Palatinose] | 129.4 | 197.4 | – | 514.7 | – | 763.7 | – |
| O=C(O)[C@]1(O)C[C@@H](O)[C@@H](O)[C@H](O)C1 [Quinic Acid] | 68.3 | – | – | 1197.1 | – | 255.3 | AUC of growth curve, R. gilardii (R. gilardii; [1]): 92.0 |
| OCc1ccccc1O[C@@H]1O[C@H](CO)[C@@H](O)[C@H](O)[C@H]1O [Salicin] | 74.0 | 222.9 | stimulated only the growth | – | did not support growth | 146.2 | – |
| OC[C@H]1O[C@@](CO)(O[C@H]2O[C@H](CO)[C@@H](O)[C@H](O)[C@H]2O)[C@@H](O)[C@@H]1O [Sucrose] | – | – | allowed growth | – | did not support growth | – | growth of R. mucilaginosa on the carbon source (in words) (R. mucilaginosa): allowed growth |
| O=C(CO)[C@@H](O[C@H]1O[C@H](CO)[C@@H](O)[C@H](O)[C@H]1O)[C@H](O)[C@H](O)CO [Turanose] | 91.9 | 296.1 | stimulated only the growth | – | did not support growth | 1146.9 | – |
| CO[C@@H]1O[C@H](CO)[C@@H](O)[C@H](O)[C@H]1O [β-Methyl-D-Glucoside] | 599.6 | 405.7 | allowed growth | – | did not support growth | 779.9 | growth of R. mucilaginosa on the carbon source (in words) (R. mucilaginosa): allowed growth; AUC of growth curve, R. gilardii (R. gilardii; [1]): 56.3 |
| Dextrin | – | 135.6 | stimulated only the growth | – | did not support growth | – | AUC of growth curve, G. haemolysans (G. haemolysans; [1]): 66.1; AUC of growth curve, S. aureus (S. aureus; [1]): 908.1 |
| Maltotriose | 1074.7 | 1276.1 | allowed growth | – | did not support growth | 943.9 | growth of R. mucilaginosa on the carbon source (in words) (R. mucilaginosa): allowed growth; AUC of growth curve, R. gilardii (R. gilardii; [1]): 54.2 |
| Tween 40 | – | – | – | – | – | 154.9 | AUC of growth curve, G. haemolysans (G. haemolysans; [1]): 101.2 |

Source: patent US20230293599A1, “BACTERIAL COMPOSITIONS WITH ANTI-INFLAMMATORY ACTIVITY” (Universiteit Gent, priority 2020, published 2023)
